This passage reports DC50 and Dmax results from US20260092061A1, “COMPOUNDS FOR TARGETED PROTEIN DEGRADATION” (Amphista Therapeutics Limited, priority 2022, published 2026).

The test deals with T1, BRD9 (Homo sapiens, UniProt Q9H8M2).
T1 sequence (Q9H8M2 1-597): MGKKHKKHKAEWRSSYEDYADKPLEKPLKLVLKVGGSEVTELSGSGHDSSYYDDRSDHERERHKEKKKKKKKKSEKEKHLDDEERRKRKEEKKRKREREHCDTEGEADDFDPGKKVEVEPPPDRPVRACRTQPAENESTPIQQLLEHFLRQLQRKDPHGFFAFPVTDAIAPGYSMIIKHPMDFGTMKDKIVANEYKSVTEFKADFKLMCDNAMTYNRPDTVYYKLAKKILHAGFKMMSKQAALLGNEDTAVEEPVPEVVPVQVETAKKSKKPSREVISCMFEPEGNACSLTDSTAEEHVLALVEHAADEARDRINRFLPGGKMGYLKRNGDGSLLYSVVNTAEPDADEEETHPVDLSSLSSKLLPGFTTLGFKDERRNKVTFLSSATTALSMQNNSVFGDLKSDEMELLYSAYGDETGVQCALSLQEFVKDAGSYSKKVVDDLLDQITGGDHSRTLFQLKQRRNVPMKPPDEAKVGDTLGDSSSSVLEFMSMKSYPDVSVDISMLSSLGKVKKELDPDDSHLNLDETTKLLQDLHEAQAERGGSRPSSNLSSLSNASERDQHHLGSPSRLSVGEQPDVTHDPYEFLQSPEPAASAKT
Nature of the test: Degradation of BRD9 (IF), immunofluorescence in MV4-11 cells, 24 hours (Assay Protocol 2). In kind it is cell-based. The arrangement: A suspension of MV4-11 cells (ATCC CRL-9591) was prepared; host or cells: MV4-11. The following applies: BRD9 degradation. Put shortly:
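MV4-11 cells treated with compound 24 h at 37° C., then fixed, permeabilised and immunostained for BRD9 (anti-BRD9 E4Q3F, Alexa 647 secondary, Hoechst counterstain). High-content imaging quantified nuclear BRD9 signal; % BRD9 remaining normalised to DMSO and 100 nM CFT-8634 controls.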

[1] abbreviates: Assay protocol 2, read-out: DC50.
The mark [2] stands for this setting: MV4-11, Assay protocol 2, read-out: Dmax.
Where [3] appears, read: MV4-11, Table 4, determined according to Assay Protocol 2, read-out: Dmax^2.
Setting [4] is: Table 4, determined according to Assay Protocol 2, read-out: DC50^2.

Like-named read-outs stand apart in the source and are kept apart here.

Usually DC50 stands for the concentration giving 50% degradation. What is called Dmax is the greatest extent of degradation seen. Regarding `COc1cc(-c2cn(C)c(=O)c(C)c2C)cc(OC)c1CN1CC2CC(C1)N2Cc1ccc2c(c1)[C@H](C)N(C(=O)/C(C#N)=C/C(C)(C)C)CC2` (single isomer, unassigned) [Compound C63, (E/Z)-2-(7-((3-(2,6-dimethoxy-4-(1,4,5-trimethyl-6-oxo-1,6-dihydropyridin-3-yl)benzyl)-3,6-diazabicyclo[3.1.1]heptan-6-yl)methyl)-1-methyl-1,2,3,4-tetrahydroisoquinoline-2-carbonyl)-4,4-dimethylpent-2-enenitrile], the DC50 under setting [1] lay in the range of 1.25 to 10 nM. Moreover, under setting [2], the Dmax is greater than 75%.

`COc1cc(-c2cn(C)c(=O)c(C)c2C)ccc1OC1CCC(Cc2cccc3c2CCN(C(=O)C(C#N)=CC(C)(C)N2CCN(C4COC4)CC2)C3C(C)C)CC1` (single isomer, unassigned) [Compound C86]: the DC50 under setting [1] was 25 to 1000 nM. Moreover, the Dmax under setting [2] is greater than 75%.

As to `COc1cc(-c2cn(C)c(=O)c(C)c2C)cc(OC)c1CN1CCN(Cc2cccc3c2CCN(C(=O)/C(C#N)=C/C(C)(C)F)C3C)C2(CC2)C1` (mixture of isomers) [Compound B140, (E/Z)-2-[5-[[7-[[2,6-dimethoxy-4-(1,4,5-trimethyl-6-oxo-3-pyridyl)phenyl]methyl]-4,7-diazaspiro[2.5]octan-4-yl]methyl]-1-methyl-3,4-dihydro-1H-isoquinoline-2-carbonyl]-4-fluoro-4-methyl-pent-2-enenitrile], the DC50 under setting [1] is less than 1.25 nM. Moreover, under setting [2], the Dmax was greater than 75%.

In the case of `COc1cc(-c2cn(C)c(=O)c(C)c2C)cc(OC)c1CN1CC2CC(C1)N2Cc1ccc2c(c1)[C@@H](C)N(C(=O)/C(C#N)=C/C(C)(C)C)CC2` (single isomer, unassigned) [Compound C64, (E/Z)-2-(7-((3-(2,6-dimethoxy-4-(1,4,5-trimethyl-6-oxo-1,6-dihydropyridin-3-yl)benzyl)-3,6-diazabicyclo[3.1.1]heptan-6-yl)methyl)-1-methyl-1,2,3,4-tetrahydroisoquinoline-2-carbonyl)-4,4-dimethylpent-2-enenitrile], the DC50 under setting [1] was in the range of 25 to 1000 nM. Besides, the Dmax under setting [2] lay in the range of 40 to 70%.

On to `COc1cc(-c2cn(C)c(=O)c(C)c2C)cc(OC)c1CN1CCN(Cc2cccc3c2CCN(C(=O)/C(C#N)=C/C(C)(C)C)[C@H]3C)C2(CC2)C1` (single isomer, unassigned) [Compound B146, (E/Z)-2-(5-((7-(2,6-dimethoxy-4-(1,4,5-trimethyl-6-oxo-1,6-dihydropyridin-3-yl)benzyl)-4,7-diazaspiro[2.5]octan-4-yl)methyl)-1-methyl-1,2,3,4-tetrahydroisoquinoline-2-carbonyl)-4,4-dimethylpent-2-enenitrile], for which the DC50 under setting [1] is less than 1.25 nM. Further, the greatest degradation seen (Dmax) under setting [2] was greater than 75%.

On to `COc1cc(-c2cn(C)c(=O)c(C)c2C)cc(OC)c1C(=O)N1CCC(Oc2cccc3c2CCN(C(=O)/C(C#N)=C/c2cccc(Br)n2)C3C)CC1` (mixture of isomers) [Compound B88, (E/Z)-3-(6-bromopyridin-2-yl)-2-(5-((1-(2,6-dimethoxy-4-(1,4,5-trimethyl-6-oxo-1,6-dihydropyridin-3-yl)benzoyl)piperidin-4-yl)oxy)-1-methyl-1,2,3,4-tetrahydroisoquinoline-2-carbonyl)acrylonitrile], for which, under setting [1], the DC50 was 10 to 25 nM. For the same compound, the maximal degradation (Dmax) under setting [2] lay in the range of 40 to 70%.

Turning to `COc1cc(-c2cn(C)c(=O)c(C)c2C)cc(OC)c1CN1CCN(Cc2ccc3c(c2)[C@H](C)N(C(=O)/C(C#N)=C/C(C)(C)C)CC3)[C@H](C)C1` (single isomer, unassigned) [Compound C3], the DC50 under setting [1] lay within 25 to 1000 nM. Moreover, the Dmax under setting [2] fell in the range of 40 to 70%.

Consider `COc1cc(-c2cn(C)c(=O)c(C)c2C)cc(OC)c1CN1C[C@H](C)N(Cc2cccc3c2CCN(C(=O)/C(C#N)=C/C(C)(C)C)C3C(C)C)C[C@H]1C` (mixture of isomers) [Compound C12, (E/Z)-2-(5-(((2S,5R)-4-(2,6-dimethoxy-4-(1,4,5-trimethyl-6-oxo-1,6-dihydropyridin-3-yl)benzyl)-2,5-dimethylpiperazin-1-yl)methyl)-1-isopropyl-1,2,3,4-tetrahydroisoquinoline-2-carbonyl)-4,4-dimethylpent-2-enenitrile], for which the DC50 under setting [1] lay within 25 to 1000 nM. Further, the Dmax under setting [2] lay within 70 to 75%.

Take `COc1cc(-c2cn(C)c(=O)c(C)c2C)cc(OC)c1CN1C[C@H](C)N(Cc2cccc3c2CCN(C(=O)/C(C#N)=C/C(C)(C)CF)C3C(C)C)C[C@H]1C` (mixture of isomers) [Compound C98, (E/Z)-2-(5-(((2S,5R)-4-(2,6-dimethoxy-4-(1,4,5-trimethyl-6-oxo-1,6-dihydropyridin-3-yl)benzyl)-2,5-dimethylpiperazin-1-yl)methyl)-1-isopropyl-1,2,3,4-tetrahydroisoquinoline-2-carbonyl)-5-fluoro-4,4-dimethylpent-2-enenitrile]: the DC50 under setting [1] fell in the range of 10 to 25 nM. Moreover, under setting [2], the maximal degradation (Dmax) was greater than 75%.

With `COc1cc(-c2cn(C)c(=O)c(C)c2C)cc(OC)c1CN1CCC2(CC1)CCN(C(=O)/C(C#N)=C/c1cccc(Br)n1)CC2` [BRD9r, (E/Z)-3-(6-bromopyridin-2-yl)-2-(9-(2,6-dimethoxy-4-(1,4,5-trimethyl-6-oxo-1,6-dihydropyridin-3-yl)benzyl)-3,9-diazaspiro[5.5]undecane-3-carbonyl)acrylonitrile], under setting [3], the Dmax was greater than 70%. In addition, the DC50 under setting [4] is greater than 200 nM.

With `COc1cc(-c2cn(C)c(=O)c(C)c2C)cc(OC)c1CN1CC(=O)N(Cc2cccc3c2CCN(C(=O)/C(C#N)=C/C(C)(C)C)C3C)C(C)(C)C1` (stereo not shown) [Compound C55], the DC50 under setting [1] was in the range of 25 to 1000 nM. Further, under setting [2], the Dmax is greater than 75%.

`COc1cc(-c2cn(C)c(=O)c(C)c2C)cc(OC)c1CN1CCN(Cc2cccc3c2CCN(C(=O)/C(C#N)=C/C(C)(C)C)C3C)C2(CCC2)C1` (mixture of isomers) [Compound B130, (E/Z)-2-(5-((8-(2,6-dimethoxy-4-(1,4,5-trimethyl-6-oxo-1,6-dihydropyridin-3-yl)benzyl)-5,8-diazaspiro[3.5]nonan-5-yl)methyl)-1-methyl-1,2,3,4-tetrahydroisoquinoline-2-carbonyl)-4,4-dimethylpent-2-enenitrile]: under setting [1], the half-maximal degradation concentration (DC50) lay in the range of 10 to 25 nM. Also, the maximal degradation (Dmax) under setting [2] was greater than 75%.

Turning to `COc1cc(-c2cn(C)c(=O)c(C)c2C)cc(OC)c1C(=O)N1CCN(C(=O)/C(C#N)=C/C(C)(C)C)CC1` [BRD9s, (E/Z)-2-(4-(2,6-dimethoxy-4-(1,4,5-trimethyl-6-oxo-1,6-dihydropyridin-3-yl)benzoyl)piperazine-1-carbonyl)-4,4-dimethylpent-2-enenitrile], the Dmax under setting [3] was 50 to 70%. Further, the DC50 under setting [4] was less than 25 nM.

Consider `COc1cc(-c2cn(C)c(=O)c(C)c2C)cc(OC)c1CN1CCN(Cc2ccc3c(c2)[C@H](C(C)C)N(C(=O)/C(C#N)=C/C(C)(C)C)CC3)C2(CC2)C1` (single isomer, unassigned) [Compound C87, (E/Z)-2-(7-((7-(2,6-dimethoxy-4-(1,4,5-trimethyl-6-oxo-1,6-dihydropyridin-3-yl)benzyl)-4,7-diazaspiro[2.5]octan-4-yl)methyl)-1-isopropyl-1,2,3,4-tetrahydroisoquinoline-2-carbonyl)-4,4-dimethylpent-2-enenitrile], for which the DC50 under setting [1] was 10 to 25 nM. Moreover, the Dmax under setting [2] lay within 70 to 75%.
